Measurements: PubChem BioAssay (NCI)
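Dose response: 5 concentrations. Exposure: 48 h. Format: 96-well plates. Endpoint: linear interpolation; highest concentration if not reached. Definition used: TGI = concentration required for complete inhibition of growth.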

What was measured:
Assay in all cases: NCI-60 cell line screen, 48 h
HOP-18 NSCLC = system: HOP-18 NSCLC
SK-MEL-2 melanoma = system: SK-MEL-2 melanoma
U251 CNS = system: U251 CNS
HL-60(TB) leukemia = system: HL-60(TB) leukemia
OVCAR-8 ovarian = system: OVCAR-8 ovarian
SK-MEL-5 melanoma = system: SK-MEL-5 melanoma
A549 NSCLC = system: A549 NSCLC
SW-620 colon = system: SW-620 colon
OVCAR-3 ovarian = system: OVCAR-3 ovarian
RXF 393 renal = system: RXF 393 renal
TK-10 renal = system: TK-10 renal
KM20L2 colon = system: KM20L2 colon
MOLT-4 leukemia = system: MOLT-4 leukemia
SF-295 CNS = system: SF-295 CNS
HCT-15 colon = system: HCT-15 colon
NCI-H460 lung = system: NCI-H460 lung
K-562 leukemia = system: K-562 leukemia
DLD-1 colon = system: DLD-1 colon
OVCAR-5 ovarian = system: OVCAR-5 ovarian
M19-MEL melanoma = system: M19-MEL melanoma
CCRF-CEM leukemia = system: CCRF-CEM leukemia
SK-OV-3 ovarian = system: SK-OV-3 ovarian
RXF-631 renal = system: RXF-631 renal
SK-MEL-28 melanoma = system: SK-MEL-28 melanoma
SN12C renal = system: SN12C renal
LXFL 529 NSCLC = system: LXFL 529 NSCLC
DMS 273 small cell lung = system: DMS 273 small cell lung
HT29 colon = system: HT29 colon
SNB-75 CNS = system: SNB-75 CNS
KM12 colon = system: KM12 colon
786-0 renal = system: 786-0 renal
LOX IMVI melanoma = system: LOX IMVI melanoma
IGROV1 ovarian = system: IGROV1 ovarian
ACHN renal = system: ACHN renal
COLO 205 colon = system: COLO 205 colon
MALME-3M melanoma = system: MALME-3M melanoma
UACC-62 melanoma = system: UACC-62 melanoma
HOP-92 NSCLC = system: HOP-92 NSCLC
UO-31 renal = system: UO-31 renal
NCI-H226 lung = system: NCI-H226 lung
HCT-116 colon = system: HCT-116 colon
CAKI-1 renal = system: CAKI-1 renal
M14 melanoma = system: M14 melanoma
OVCAR-4 ovarian = system: OVCAR-4 ovarian
HOP-62 NSCLC = system: HOP-62 NSCLC
HCC-2998 colon = system: HCC-2998 colon
NCI-H23 lung = system: NCI-H23 lung
SF-539 CNS = system: SF-539 CNS
SNB-19 CNS = system: SNB-19 CNS
SF-268 CNS = system: SF-268 CNS
SR leukemia = system: SR leukemia
DMS 114 small cell lung = system: DMS 114 small cell lung
EKVX NSCLC = system: EKVX NSCLC
SNB-78 CNS = system: SNB-78 CNS
XF 498 CNS = system: XF 498 CNS
UACC-257 melanoma = system: UACC-257 melanoma
NCI-H522 lung = system: NCI-H522 lung
A498 renal = system: A498 renal
RPMI-8226 leukemia = system: RPMI-8226 leukemia

Compound `O=c1nc2sc3ccc4ccccc4c3n2nc1-c1ccccc1` has a TGI (HOP-18 NSCLC) of 93.7 µM, a TGI (SK-MEL-2 melanoma) of over 100 µM and a TGI (U251 CNS) of 38.2 µM. The TGI (HL-60(TB) leukemia) was over 100 µM, the TGI (OVCAR-8 ovarian) was 42.2 µM and the TGI (SK-MEL-5 melanoma) was over 100 µM. The TGI (A549 NSCLC) was 94.5 µM, the TGI (SW-620 colon) was over 100 µM and the TGI (OVCAR-3 ovarian) was 40.4 µM. For the same compound, the TGI (RXF 393 renal) was 70.6 µM, the TGI (TK-10 renal) was 50.4 µM and the TGI (KM20L2 colon) was over 100 µM. The TGI (MOLT-4 leukemia) was over 100 µM, the TGI (SF-295 CNS) was 33.3 µM and the TGI (HCT-15 colon) was over 100 µM. It also gave a TGI (NCI-H460 lung) of 59.2 µM, a TGI (K-562 leukemia) of over 100 µM and a TGI (DLD-1 colon) of over 100 µM. For the same compound, the TGI (OVCAR-5 ovarian) was over 100 µM, the TGI (M19-MEL melanoma) was over 100 µM and the TGI (CCRF-CEM leukemia) was over 100 µM. It also gave a TGI (SK-OV-3 ovarian) of 95.1 µM, a TGI (RXF-631 renal) of over 100 µM and a TGI (SK-MEL-28 melanoma) of over 100 µM. The TGI (SN12C renal) was 93.8 µM, the TGI (LXFL 529 NSCLC) was over 100 µM and the TGI (DMS 273 small cell lung) was over 100 µM. The TGI (HT29 colon) was over 100 µM, the TGI (SNB-75 CNS) was 46.9 µM and the TGI (KM12 colon) was over 100 µM. The TGI (786-0 renal) was 38 µM, the TGI (LOX IMVI melanoma) was 28.4 µM and the TGI (IGROV1 ovarian) was 82.6 µM. The TGI (ACHN renal) was 87.4 µM, the TGI (COLO 205 colon) was over 100 µM and the TGI (MALME-3M melanoma) was 41.1 µM. The TGI (UACC-62 melanoma) was over 100 µM, the TGI (HOP-92 NSCLC) was 50 µM and the TGI (UO-31 renal) was 51.4 µM. The TGI (NCI-H226 lung) was over 100 µM, the TGI (HCT-116 colon) was 51.2 µM and the TGI (CAKI-1 renal) was 73.9 µM. The TGI (M14 melanoma) was over 100 µM, the TGI (OVCAR-4 ovarian) was 29.3 µM and the TGI (HOP-62 NSCLC) was 66.6 µM. It also gave a TGI (HCC-2998 colon) of over 100 µM, a TGI (NCI-H23 lung) of 87.5 µM and a TGI (SF-539 CNS) of 34.2 µM. For the same compound, the TGI (SNB-19 CNS) was over 100 µM, the TGI (SF-268 CNS) was over 100 µM and the TGI (SR leukemia) was over 100 µM. It also gave a TGI (DMS 114 small cell lung) of over 100 µM, a TGI (EKVX NSCLC) of over 100 µM and a TGI (SNB-78 CNS) of over 100 µM. It also gave a TGI (XF 498 CNS) of 70.2 µM and a TGI (UACC-257 melanoma) of over 100 µM.
`C/C(=N\N(C)C)C(CN1CCCCC1)C(c1ccccc1)c1c(O)c2ccccc2oc1=O` (stereo not given) gave a TGI (HOP-18 NSCLC) of over 100 µM, a TGI (SK-MEL-2 melanoma) of over 100 µM and a TGI (U251 CNS) of over 100 µM. For the same compound, the TGI (HL-60(TB) leukemia) was over 100 µM, the TGI (OVCAR-8 ovarian) was over 100 µM and the TGI (SK-MEL-5 melanoma) was over 100 µM. The TGI (A549 NSCLC) was over 100 µM, the TGI (SW-620 colon) was over 100 µM and the TGI (OVCAR-3 ovarian) was over 100 µM. For the same compound, the TGI (RXF 393 renal) was over 100 µM, the TGI (TK-10 renal) was over 100 µM and the TGI (KM20L2 colon) was over 100 µM. For the same compound, the TGI (MOLT-4 leukemia) was over 100 µM, the TGI (SF-295 CNS) was over 100 µM and the TGI (HCT-15 colon) was over 100 µM. The TGI (NCI-H460 lung) was over 100 µM, the TGI (NCI-H522 lung) was over 100 µM and the TGI (K-562 leukemia) was over 100 µM. For the same compound, the TGI (DLD-1 colon) was over 100 µM, the TGI (OVCAR-5 ovarian) was over 100 µM and the TGI (M19-MEL melanoma) was over 100 µM. For the same compound, the TGI (CCRF-CEM leukemia) was over 100 µM, the TGI (SK-OV-3 ovarian) was over 100 µM and the TGI (RXF-631 renal) was over 100 µM. The TGI (SK-MEL-28 melanoma) was over 100 µM, the TGI (SN12C renal) was over 100 µM and the TGI (LXFL 529 NSCLC) was over 100 µM. For the same compound, the TGI (DMS 273 small cell lung) was over 100 µM, the TGI (HT29 colon) was over 100 µM and the TGI (SNB-75 CNS) was over 100 µM. It also gave a TGI (KM12 colon) of over 100 µM, a TGI (786-0 renal) of over 100 µM and a TGI (LOX IMVI melanoma) of over 100 µM. For the same compound, the TGI (IGROV1 ovarian) was over 100 µM, the TGI (A498 renal) was over 100 µM and the TGI (ACHN renal) was over 100 µM. It also gave a TGI (COLO 205 colon) of over 100 µM, a TGI (MALME-3M melanoma) of over 100 µM and a TGI (UACC-62 melanoma) of over 100 µM. The TGI (UO-31 renal) was over 100 µM, the TGI (NCI-H226 lung) was over 100 µM and the TGI (HCT-116 colon) was over 100 µM. The TGI (CAKI-1 renal) was over 100 µM, the TGI (M14 melanoma) was over 100 µM and the TGI (OVCAR-4 ovarian) was over 100 µM. For the same compound, the TGI (HOP-62 NSCLC) was over 100 µM, the TGI (RPMI-8226 leukemia) was over 100 µM and the TGI (NCI-H23 lung) was over 100 µM. It also gave a TGI (SF-539 CNS) of over 100 µM, a TGI (SNB-19 CNS) of over 100 µM and a TGI (SF-268 CNS) of over 100 µM. For the same compound, the TGI (SR leukemia) was over 100 µM, the TGI (DMS 114 small cell lung) was over 100 µM and the TGI (EKVX NSCLC) was over 100 µM. It also gave a TGI (SNB-78 CNS) of over 100 µM, a TGI (XF 498 CNS) of over 100 µM and a TGI (UACC-257 melanoma) of over 100 µM.
`CCCCCCCCCCCCCCCCP(=O)(OC)OC` gave a TGI (HOP-18 NSCLC) of 28.6 µM, a TGI (SK-MEL-2 melanoma) of 30 µM and a TGI (U251 CNS) of 32.4 µM. For the same compound, the TGI (HL-60(TB) leukemia) was 27.3 µM, the TGI (OVCAR-8 ovarian) was 30.9 µM and the TGI (SK-MEL-5 melanoma) was 30.7 µM. For the same compound, the TGI (A549 NSCLC) was 33.4 µM, the TGI (SW-620 colon) was 28.2 µM and the TGI (OVCAR-3 ovarian) was 31.9 µM. The TGI (RXF 393 renal) was 34.4 µM, the TGI (TK-10 renal) was 31 µM and the TGI (KM20L2 colon) was 37.4 µM. For the same compound, the TGI (MOLT-4 leukemia) was 32.3 µM, the TGI (SF-295 CNS) was 32.4 µM and the TGI (HCT-15 colon) was 30.2 µM. For the same compound, the TGI (NCI-H460 lung) was 31.1 µM, the TGI (NCI-H522 lung) was 26.8 µM and the TGI (K-562 leukemia) was 44.8 µM. For the same compound, the TGI (DLD-1 colon) was 31.4 µM, the TGI (OVCAR-5 ovarian) was 27.1 µM and the TGI (M19-MEL melanoma) was 30.3 µM. For the same compound, the TGI (CCRF-CEM leukemia) was 40.1 µM, the TGI (SK-OV-3 ovarian) was 29 µM and the TGI (RXF-631 renal) was 31.3 µM. For the same compound, the TGI (SK-MEL-28 melanoma) was 31.6 µM, the TGI (SN12C renal) was 31.3 µM and the TGI (LXFL 529 NSCLC) was 29.3 µM. The TGI (DMS 273 small cell lung) was 27.6 µM, the TGI (HT29 colon) was 31.6 µM and the TGI (SNB-75 CNS) was 32 µM. It also gave a TGI (KM12 colon) of 32.2 µM, a TGI (786-0 renal) of 31.4 µM and a TGI (LOX IMVI melanoma) of 31.9 µM. The TGI (IGROV1 ovarian) was 34.6 µM, the TGI (ACHN renal) was 28 µM and the TGI (COLO 205 colon) was 30.7 µM. It also gave a TGI (MALME-3M melanoma) of 32.7 µM, a TGI (UACC-62 melanoma) of 27.8 µM and a TGI (HOP-92 NSCLC) of 35.3 µM. The TGI (UO-31 renal) was 24.5 µM, the TGI (NCI-H226 lung) was 33.2 µM and the TGI (HCT-116 colon) was 33.1 µM. For the same compound, the TGI (CAKI-1 renal) was 30.5 µM, the TGI (M14 melanoma) was 30.2 µM and the TGI (OVCAR-4 ovarian) was 35.9 µM. The TGI (HOP-62 NSCLC) was 24.3 µM, the TGI (HCC-2998 colon) was 30.8 µM and the TGI (RPMI-8226 leukemia) was 35 µM. The TGI (NCI-H23 lung) was 31.8 µM, the TGI (SF-539 CNS) was 34.9 µM and the TGI (SNB-19 CNS) was 28.6 µM. The TGI (SR leukemia) was 37.9 µM, the TGI (DMS 114 small cell lung) was 30.5 µM and the TGI (EKVX NSCLC) was 30 µM. It also gave a TGI (SNB-78 CNS) of 34.1 µM, a TGI (XF 498 CNS) of 25.8 µM and a TGI (UACC-257 melanoma) of 31.8 µM.
